From patent publication US10183015B2, “Heterocyclic compounds and methods of use” (Medivation Technologies LLC, priority 2015, dated 2019)
“And” between values parts separate entries of the source, which are not always exact repeats. Identical values can stand only once.

Key:
Type in all cases: in vivo
Coll1a1 = test: Short-term Paigen-diet NASH mouse model: hepatic Coll1a1 (collagen 1α1) gene expression (RT-qPCR); set-up: key to Fibrosis gene expression Coll1a1: Dct: Ct of gene minus Ct of 18S reference; key to Fibrosis gene expression Coll1a1: 2DDct: expression relative to vehicle group, 2^-ΔΔCt method, 18S-normalized; conditions: 21 days
Experimental: (§1) To investigate whether Compound #37 prevents the development of pathology associated with NASH and steatosis in an acute exploratory disease model, a study was conducted using a diet-induced acute liver steatosis model in mice. As described below, in this study, C57BL/6J mice were initiated on the Paigen diet and simultaneously treated with Compound #37 (5, 20, and 40 mg/kg/day) or vehicle control (20% HPβCD 10 mL/kg/day) by oral gavage for 21 days.
(§2) After acclimation, 8-week old male C57Bl/6J mice (Charles River) weighing about 25 g were randomized in 4 groups according their body weight and treated once daily around noon by oral gavage with vehicle, or Compound #37 at various for 21 days as follows: Group 1: vehicle-20% (2-hydroxypropyl)-β-cyclodextrin (HP-β-CD) (n=10); Group 2: Compound #37, 5 mg/kg (n=10) Group 3: Compound #37, 20 mg/kg (n=10) Group 4: Compound #37, 40 mg/kg (n=10). During the treatment period, body weight and food intake (measured over 24h) were measured 3 times per week and once a week, respectively. During the acclimation, all mice were fed a standard diet (Special Diets Services RM1 (E), product no. 801492) and tap water ad libitum. After the acclimation period, mice were fed until the end of the experiment with a 60% high fat Paigen diet (60 kcal % fat, 1.25% cholesterol, and 0.5% cholate; D11061901, Research Diet) and tap water ad libitum.
(§3) Gene expression analysis. Hepatic expression levels of genes involved in lipid metabolism (FAS, SREBP1, ACC1, SCD1), cholesterol metabolism (HMG-CoAR, LDLR), SREBP proteolysis (SCAP, INSIG1), ER stress (PERK), oxidative stress (NRF2), inflammation (MCP-1), and fibrosis (collagen 1α1) were quantified by RTqPCR. Expression level was normalized to 18S gene expression and relative expression to vehicle group was calculated with the […] method.

SCAP = test: Short-term Paigen-diet NASH mouse model: hepatic SCAP gene expression (RT-qPCR); conditions: liver, 21 days; for DDct: SCAP Dct relative to vehicle mean; for Dct: SCAP minus 18S; for 2DDct: SCAP relative expression to vehicle group, normalized to 18S; for SCAP: raw RT-qPCR value
Experimental: as §1, §2, §3

[1] = tested on: 60% high fat Paigen diet induced NASH mouse model; test: Short-term Paigen-diet NASH mouse model: liver weight and liver lipid content
Experimental: To investigate whether Compound #37 prevents the development of pathology associated with NASH and steatosis in an acute exploratory disease model, a study was conducted using a diet-induced acute liver steatosis model in mice. […]
as §2, with “or Compound #37 at various for 21 days as follows: Group 1: vehicle-20%” left out, “After the acclimation period, mice were fed until the end of the experiment with a 60% high fat Paigen diet (60 kcal % fat, 1.25% cholesterol, and 0.5% cholate; D11061901, Research Diet) and tap water ad libitum.” left out
After 21 days of treatment, mice were 4-hour fasted (9 am to 1 pm). One hour after the last dosing (noon), blood was collected by retro-orbital bleeding (maximal volume on EDTA) under isoflurane anesthesia to measure plasma triglycerides, total cholesterol, non-esterified fatty acid, ALT and AST. Mice were then sacrificed by cervical dislocation, and livers were harvested and weighed. Liver samples from the same lobe were dissected, frozen, and analyzed as described below.
At the end of the treatment period, livers were weighed, and their lipid content was analyzed. The liver weights were unchanged by the treatment.

[2] = Compound #37 5 mg/kg, group mean, n=10
[3] = Compound #37 5 mg/kg, individual animals, 5 mg/kg
[4] = Compound #37 20 mg/kg, group mean, n=6
[5] = Compound #37 20 mg/kg, individual animals, 20 mg/kg
[6] = 5 mg/kg p.o. daily, 21 days of diet and treatment, group mean
[7] = 5 mg/kg p.o. daily, 21 days of diet and treatment, individual animals
[8] = 20 mg/kg p.o. daily, 21 days of diet and treatment, group mean
[9] = 20 mg/kg p.o. daily, 21 days of diet and treatment, individual animals
[10] = 40 mg/kg p.o. (stopped after 4 administrations), 9 days of diet, group mean
[11] = 40 mg/kg p.o. (stopped after 4 administrations), 9 days of diet, individual animals

## CC(C)Cc1cc(-c2nc(-c3ccc(NS(=O)(=O)C(F)(F)F)cc3Cl)cs2)ccn1 [Compound 37, N-(3-chloro-4-(2-(2-isobutylpyridin-4-yl)thiazol-4-yl)phenyl)-1,1,1-trifluoromethanesulfonamide]
Coll1a1; 5 mg/kg, group mean, n 10
  Fibrosis gene expression Coll1a1: 2DDct: 0.88
  Fibrosis gene expression Coll1a1: Coll1a1: 27.2
  Fibrosis gene expression Coll1a1: DDct: 0.84
  Fibrosis gene expression Coll1a1: Dct: 15
Coll1a1; 5 mg/kg, individual animals
  Fibrosis gene expression Coll1a1: 2DDct: 0.86 and 0.27 and 0.96 and 0.69 and 0.15 and 0.05 and 1.75 and 2.26 and 1.2 and 0.57
  Fibrosis gene expression Coll1a1: Coll1a1: 27.81 and 29.15 and 25.8 and 28.03 and 28.92 and 31.82 and 24.93 and 24.75 and 25.01 and 26.07
  Fibrosis gene expression Coll1a1: DDct: 0.21 and 1.9 and 0.05 and 0.54 and 2.75 and 4.33 and −0.81 and −1.18 and −0.27 and 0.81
  Fibrosis gene expression Coll1a1: Dct: 14.4 and 16.04 and 14.19 and 14.68 and 16.89 and 18.47 and 13.33 and 12.96 and 13.87 and 14.95
Coll1a1; 20 mg/kg, group mean, n 5
  Fibrosis gene expression Coll1a1: 2DDct: 0.68
Coll1a1; 20 mg/kg, group mean, n 6
  Fibrosis gene expression Coll1a1: Coll1a1: 26.6
  Fibrosis gene expression Coll1a1: DDct: 0.24
  Fibrosis gene expression Coll1a1: Dct: 14.4
Coll1a1; 20 mg/kg, individual animals
  Fibrosis gene expression Coll1a1: 2DDct: 0.28 and 0.85 and 0.66 and 1 and 0.61 and 3.91*
  Fibrosis gene expression Coll1a1: Coll1a1: 28.9 and 26.66 and 26.93 and 27.17 and 26.34 and 23.43
  Fibrosis gene expression Coll1a1: DDct: 1.85 and 0.23 and 0.59 and 0 and 0.71 and −1.97
  Fibrosis gene expression Coll1a1: Dct: 15.99 and 14.37 and 14.73 and 14.14 and 14.85 and 12.17
SCAP; [2]
  DDct: 0.19
  Dct: 12.8
  2DDct: 0.94
  SCAP: 25.1
SCAP; [3]
  DDct: −0.7 and 0.72 and −0.1 and −0.18 and 1.21 and 0.7 and 0.27 and −0.21 and −0.02 and 0.17
  Dct: 11.96 and 13.38 and 12.56 and 12.48 and 13.87 and 13.36 and 12.93 and 12.45 and 12.64 and 12.83
  2DDct: 1.62 and 0.61 and 1.07 and 1.13 and 0.43 and 0.62 and 0.83 and 1.16 and 1.01 and 0.89
  SCAP: 25.42 and 26.49 and 24.17 and 25.83 and 25.9 and 26.71 and 24.53 and 24.24 and 23.78 and 23.95
SCAP; [4]
  DDct: 0.07
  Dct: 12.7
  2DDct: 1.15
  SCAP: 24.9
SCAP; [5]
  DDct: 0.6 and 0.83 and 0.33 and −1.29 and 0.9 and −0.94
  Dct: 13.26 and 13.49 and 12.99 and 11.37 and 13.56 and 11.72
  2DDct: 0.66 and 0.56 and 0.79 and 2.44 and 0.54 and 1.92
  SCAP: 26.17 and 25.78 and 25.19 and 24.4 and 25.05 and 22.98
[1]; [6]
  liver cholesterol (μg/mg tissue): 34.4 μg/mg tissue
  liver fatty acids (nmol/mg tissue): 57.6 nmol/mg tissue
  liver triglycerides (μg/mg tissue): 6.2 μg/mg tissue
[1]; [7]
  liver cholesterol (μg/mg tissue): 42.24 μg/mg tissue and 37.91 μg/mg tissue and 31.39 μg/mg tissue and 23.12 μg/mg tissue and 31.47 μg/mg tissue and 25.31 μg/mg tissue and 29.76 μg/mg tissue and 37.34 μg/mg tissue and 49.15 μg/mg tissue and 36.57 μg/mg tissue
  liver fatty acids (nmol/mg tissue): 65.4 nmol/mg tissue and 66.6 nmol/mg tissue and 53.5 nmol/mg tissue and 47.5 nmol/mg tissue and 55.2 nmol/mg tissue (2×) and 35.5 nmol/mg tissue and 55.0 nmol/mg tissue and 77.4 nmol/mg tissue and 65.2 nmol/mg tissue
  liver triglycerides (μg/mg tissue): 6.91 μg/mg tissue and 7.18 μg/mg tissue and 4.64 μg/mg tissue and 9.62 μg/mg tissue and 6.13 μg/mg tissue (2×) and 5.69 μg/mg tissue and 5.49 μg/mg tissue and 3.62 μg/mg tissue and 6.16 μg/mg tissue
[1]; [8]
  liver cholesterol (μg/mg tissue): 39.1 μg/mg tissue
  liver fatty acids (nmol/mg tissue): 63.3 nmol/mg tissue
  liver triglycerides (μg/mg tissue): 5.4 μg/mg tissue
[1]; [9]
  liver cholesterol (μg/mg tissue): 38.32 μg/mg tissue and 42.07 μg/mg tissue and 39.38 μg/mg tissue and 32.61 μg/mg tissue and 40.02 μg/mg tissue and 42.44 μg/mg tissue
  liver fatty acids (nmol/mg tissue): 63.4 nmol/mg tissue and 66.5 nmol/mg tissue and 65.0 nmol/mg tissue and 50.0 nmol/mg tissue and 62.7 nmol/mg tissue and 72.5 nmol/mg tissue
  liver triglycerides (μg/mg tissue): 6.75 μg/mg tissue and 2.65 μg/mg tissue and 2.83 μg/mg tissue and 3.72 μg/mg tissue and 9.84 μg/mg tissue and 6.82 μg/mg tissue
[1]; [10]
  liver cholesterol (μg/mg tissue): 20.3 μg/mg tissue
  liver fatty acids (nmol/mg tissue): 43.0 nmol/mg tissue
  liver triglycerides (μg/mg tissue): 11.7 μg/mg tissue
[1]; [11]
  liver cholesterol (μg/mg tissue): 22.40 μg/mg tissue and 20.18 μg/mg tissue and 20.88 μg/mg tissue and 17.60 μg/mg tissue
  liver fatty acids (nmol/mg tissue): 43.6 nmol/mg tissue and 43.1 nmol/mg tissue and 43.5 nmol/mg tissue and 41.8 nmol/mg tissue
  liver triglycerides (μg/mg tissue): 9.11 μg/mg tissue and 11.15 μg/mg tissue and 14.68 μg/mg tissue and 11.77 μg/mg tissue
